Test results taken from US20120115848A1, “Inhibitors of Polo-Like Kinase” (ELAN PHARMACEUTICALS, INC., priority 2010, published 2012).

Columns and labels:
[1] = test system: HEK-293 cells expressing α-synuclein and PLK2; assay: 293-Syn/PLK2 cell assay (ratio of p-Ser-129 α-synuclein to total synuclein, ELISA); type: cell-based; settings: for IC50: Homo sapiens, HEK293, HEK-293 cells expressing α-synuclein and PLK2, ratio of phosphorylated synuclein to total synuclein; for cell activity: cellular IC50 compared to analogous compounds of WO 2011/079118
Description: Compounds as described herein (compounds of Formula I, e.g., compounds of the above Examples) are tested for their activity in HEK-293 cells expressing α-synuclein and PLK2. An exemplary assay procedure is described below.
(1) Plate HEK-293 cells stably transfected with α-synuclein in 10 cm dishes (Corning) at […] in 10% FCS/DMEM. (2) Transfect cells with PLK2 (PLK2-pCMV6 (Origene), at a concentration of 24 μg/dish and 72 μl Fugene6/dish (Roche)). (3) Trypsinize cells the following day and plate at 30,000 cells/well in PDL coated 96 well tissue culture plates (Becton Dickinson). (4) Starting with compounds at a concentration of 10 mM solutions, prepare five 1:3 serial dilutions in DMSO. (5) Dilute test and positive control compound DMSO stocks 1:100 into 10% FCS DMEM. (6) Change the cell media immediately prior to compound treatment, then add compound+DMEM to cells at 1:10 final dilution (final DMSO concentration is 0.1%). (7) After 2 hours, place the cells on ice, remove the media and the rinse cells once with cold phosphate buffered saline (PBS). Remove PBS and lyse the cells using a cell extraction buffer (CEB) (10 mM Tris, pH 7.4, 100 mM NaCl, 1 mM EDTA, 1 mM NaF, 1 mM EGTA, 20 mM Na4P2O7, 2 mM Na3VO4, 0.5% Deoxycholate, 1% TritonX-100, 10% Glycerol, 0.1% SDS) with added protease inhibitors (10 μg/ml leupeptin, 20 μg/ml aprotinin) (8) Freeze plates on dry ice and store at −80°.
Total and p-Ser-129 α-synuclein levels can be quantified with a sandwich ELISA (e.g., using 1H7 as the capture antibody and biotinylated 5C12 and 11A5 as the total and phospho synuclein reporter antibodies respectively; see e.g., J. Biol. Chem. 2006, 281:29739-29752, the disclosure of which is incorporated herein in its entirety). Alpha-synuclein phosphorylated at serine 129 (p-Ser-129 α-synuclein) levels are normalized to the total synuclein measured in each lysate and the ratio of phosphorylated synuclein to total synuclein as a function of compound concentration can be used to determine IC50 of the compounds.

PLK2 = biological target: T1, PLK2 (Homo sapiens, UniProt Q9NYY3); assay: PLK TR-FRET peptide assay (PLK2); type: biochemical; settings: for selectivity relative to PLK1: compared to analogous compounds of WO 2011/079118; for activity with respect to PLK2: in vitro IC50 compared to analogous compounds of WO 2011/079118 (R1 methyl instead of fused ring)
T1 construct: GST (N)
Description: (§1) Compounds as described herein (compounds of Formula I, e.g., compounds of the above Examples) are tested for their in vitro kinase activities using various PLK assays. An exemplary assay procedure is described below.
(§2) (1) Test compound solution preparation: prepare 4× compound solution in PLK assay buffer (50 mM HEPES, 10 mM MgCl2, 1 mM EGTA, 0.01% Tween-20, pH7.4). DTT is added to the buffer just before the experiment to a final concentration of 2 mM. Add 2.5 μl/well to a black 384-well low volume plate (4% DMSO at this step). (2) Kinase preparation: Prepare 2×GST-PLK 1, 2 or 3 (e.g., CarnaBio) solutions in assay buffer (6 nM for PLK1, 6 nM for PLK2 and 0.2 nM for PLK3). Add 5 μl/well, shake the plate, incubate the enzyme with compound at ret. Time for 15 min. (3) ATP/substrate mixture preparation: Prepare 4× (ATP/ULight-Topo Ha peptide substrate; e.g., Perkin Elmer) mixture in assay buffer (0.4 mM ATP/200 nM peptide). Add 2.5 μl/well, shake the plate and incubate at ret. Time. Reactions time: 60 min for PLK1, 60 min for PLK2 and 15 min for PLK3 (4) EDTA preparation: Dilute 0.5M EDTA to 24 mM with detection buffer. Add 5 μl/well to the plate, shake the plate well for 5 min. (5) Prepare 4× Eu-anti-P-Topo Ha (T1342) (e.g., Perkin Elmer) solution (8 nM) in detection buffer (50 Tris-HCl, 150 mM NaCl, 0.5% BSA, PH7.5). Add 5 μl/well to the plate, shake the plate and incubate at ret. Time for 1 h before reading on Envision at 665 nm/615 nm. The fluorescent signal as a function of compound concentration is used to determine the compound IC50.

PLK1 = biological target: T2, PLK1 (Homo sapiens, UniProt P53350); assay: PLK TR-FRET peptide assay (PLK1); type: biochemical
T2 construct: GST (N)
Description: as §1, §2

PLK3 = biological target: T3, PLK3 (Homo sapiens, UniProt Q9H4B4); assay: PLK TR-FRET peptide assay (PLK3); type: biochemical; settings: class symbols
T3 construct: GST (N)
Description: as §1, §2

[2] = PLK TR-FRET peptide assay, class symbols
[3] = comparison with analogous compounds of WO 2011/079118

T2 sequence (P53350 whole entry): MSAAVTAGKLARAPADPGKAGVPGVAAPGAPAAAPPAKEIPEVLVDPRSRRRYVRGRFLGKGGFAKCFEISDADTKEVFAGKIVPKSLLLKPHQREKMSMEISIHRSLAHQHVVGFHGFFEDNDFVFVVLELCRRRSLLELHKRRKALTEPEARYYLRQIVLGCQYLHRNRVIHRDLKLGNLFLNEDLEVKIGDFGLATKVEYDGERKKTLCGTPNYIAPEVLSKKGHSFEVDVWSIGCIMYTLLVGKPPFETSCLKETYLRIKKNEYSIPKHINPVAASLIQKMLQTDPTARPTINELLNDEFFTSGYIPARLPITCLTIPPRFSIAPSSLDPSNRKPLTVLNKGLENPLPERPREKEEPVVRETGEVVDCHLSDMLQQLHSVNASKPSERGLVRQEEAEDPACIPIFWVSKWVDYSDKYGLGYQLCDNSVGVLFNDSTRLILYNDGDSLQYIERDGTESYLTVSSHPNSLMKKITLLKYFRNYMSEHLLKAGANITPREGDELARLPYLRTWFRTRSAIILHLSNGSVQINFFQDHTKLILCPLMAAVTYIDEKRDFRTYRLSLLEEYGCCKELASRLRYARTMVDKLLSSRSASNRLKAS
T1 sequence (Q9NYY3 whole entry, the tested form may be a part): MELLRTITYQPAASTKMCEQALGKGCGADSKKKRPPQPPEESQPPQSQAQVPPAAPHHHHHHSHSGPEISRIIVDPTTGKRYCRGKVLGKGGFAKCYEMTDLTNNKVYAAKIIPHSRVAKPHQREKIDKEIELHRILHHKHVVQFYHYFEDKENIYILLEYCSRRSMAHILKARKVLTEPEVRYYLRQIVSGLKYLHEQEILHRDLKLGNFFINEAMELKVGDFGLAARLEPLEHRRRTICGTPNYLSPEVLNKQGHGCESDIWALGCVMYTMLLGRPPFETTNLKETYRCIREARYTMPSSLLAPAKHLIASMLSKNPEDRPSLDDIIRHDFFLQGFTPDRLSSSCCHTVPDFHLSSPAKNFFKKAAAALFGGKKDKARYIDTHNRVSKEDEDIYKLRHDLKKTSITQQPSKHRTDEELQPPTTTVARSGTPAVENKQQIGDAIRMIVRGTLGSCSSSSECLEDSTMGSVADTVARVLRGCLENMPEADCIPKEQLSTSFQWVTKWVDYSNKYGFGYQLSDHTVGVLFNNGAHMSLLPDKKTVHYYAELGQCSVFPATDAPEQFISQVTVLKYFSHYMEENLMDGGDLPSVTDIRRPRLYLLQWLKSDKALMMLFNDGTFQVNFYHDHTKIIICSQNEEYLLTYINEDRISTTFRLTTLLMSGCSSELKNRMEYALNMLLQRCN
T3 sequence (Q9H4B4 whole entry): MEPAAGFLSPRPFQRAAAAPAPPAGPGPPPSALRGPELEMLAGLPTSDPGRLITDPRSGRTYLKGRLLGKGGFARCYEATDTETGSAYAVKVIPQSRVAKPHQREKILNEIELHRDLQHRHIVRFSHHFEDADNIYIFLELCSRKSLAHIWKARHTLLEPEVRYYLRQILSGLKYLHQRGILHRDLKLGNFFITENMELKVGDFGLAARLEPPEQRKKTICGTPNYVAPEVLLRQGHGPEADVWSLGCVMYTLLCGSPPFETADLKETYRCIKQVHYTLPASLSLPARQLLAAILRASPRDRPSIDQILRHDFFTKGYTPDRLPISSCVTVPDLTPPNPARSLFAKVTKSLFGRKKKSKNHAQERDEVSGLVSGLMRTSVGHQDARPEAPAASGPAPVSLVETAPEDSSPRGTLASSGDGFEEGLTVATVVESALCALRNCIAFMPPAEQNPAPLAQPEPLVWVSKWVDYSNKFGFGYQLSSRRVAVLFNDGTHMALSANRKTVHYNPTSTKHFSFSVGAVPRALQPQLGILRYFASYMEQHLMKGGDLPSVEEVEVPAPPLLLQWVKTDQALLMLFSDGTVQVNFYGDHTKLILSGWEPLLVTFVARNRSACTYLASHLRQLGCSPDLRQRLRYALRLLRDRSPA

SMILES | IC50 [1] | cell activity [1] | IC50 (PLK2; [2]) | selectivity relative to PLK1 (PLK2) | IC50 (PLK2; [3]) | ratio Plk2 IC50 / Plk1 IC50 (selectivity relative to PLK1) (PLK2; [3]) | activity with respect to PLK2 (PLK2) | IC50 (PLK1; [2]) | IC50 (PLK1; [3]) | IC50 (PLK3)
CC[C@@H]1c2nncn2-c2cnc(-n3ccnc3-c3ccccc3F)nc2N1C1CCC1 [Example 5, (R)-5-cyclobutyl-4-ethyl-7-(2-(2-fluorophenyl)-1H-imidazol-1-yl)-4,5-dihydro-[1,2,4]triazolo[4,3-f]pteridine] | 0.44 µM | comparable cell activity | < 1 µM | comparable selectivity | 0.006 µM | 0.019 | comparable activity | < 1 µM | 0.317 µM | 1 to 10 µM
CC[C@@H]1c2nncn2-c2cnc(-n3ccnc3-c3ccc(F)cc3)nc2N1C1CCC1 [PCT Example 50, reference compound] | – | – | – | – | 0.02 µM | – | – | – | 2.06 µM | –
CC[C@@H]1c2nncn2-c2cnc(-n3ccnc3-c3ccccc3)nc2N1C1CCC1 [Example 3, (R)-5-Cyclobutyl-4-ethyl-7-(2-phenyl-1H-imidazol-1-yl)-4,5-dihydro-[1,2,4]triazolo[4,3-f]pteridine] | 0.42 µM | comparable cell activity | < 1 µM | comparable selectivity | 0.0085 µM | 0.019 | comparable activity | < 1 µM | 0.441 µM | 1 to 10 µM
CC[C@@H]1C(=O)N(C)c2cnc(-n3ccnc3-c3ccc(F)c(F)c3)nc2N1C1CCC1 [PCT Example 48, reference compound] | 4.3 µM | – | – | – | 0.039 µM | 0.011 | – | – | 3.56 µM | –
CC[C@@H]1c2nncn2-c2cnc(-n3ccnc3-c3ccc(F)cc3)nc2N1C1CCC1 [Example 7, (R)-5-Cyclobutyl-4-ethyl-7-(2-(4-fluorophenyl)-1H-imidazol-1-yl)-4,5-dihydro-[1,2,4]triazolo[4,3-f]pteridine] | 2.9 µM | comparable cell activity | < 1 µM | comparable selectivity | 0.04 µM | 0.0064 | comparable activity | 1 to 10 µM | 6.26 µM | 10 to 50 µM
CC[C@@H]1c2nncn2-c2cnc(-n3ccnc3-c3ccc(F)cc3F)nc2N1C1CCC1 [Example 11, (R)-5-Cyclobutyl-7-(2-(2,4-difluorophenyl)-1H-imidazol-1-yl)-4-ethyl-4,5-dihydro-[1,2,4]triazolo[4,3-f]pteridine] | – | – | < 1 µM | – | – | – | – | 1 to 10 µM | – | 10 to 50 µM
CC[C@@H]1C(=O)N(C)c2cnc(-n3ccnc3-c3ccccc3)nc2N1C1CCC1 [PCT Example 47, reference compound] | 0.67 µM | – | – | – | 0.007 µM | 0.036 | – | – | 0.194 µM | –
CC[C@@H]1c2nncn2-c2cnc(-n3ccnc3-c3ccc(F)c(F)c3)nc2N1C1CCC1 [Example 1, (R)-5-Cyclobutyl-7-(2-(3,4-difluorophenyl)-1H-imidazol-1-yl)-4-ethyl-4,5-dihydro-[1,2,4]triazolo[4,3-f]pteridine] | 4.4 µM | comparable cell activity | < 1 µM | comparable selectivity | 0.092 µM | 0.0063 | comparable activity | 10 to 50 µM | 14.6 µM | 10 to 50 µM
CC[C@@H]1c2nncn2-c2cnc(-n3ccnc3-c3cccc(F)c3F)nc2N1C1CCC1 [Example 9, (R)-5-cyclobutyl-7-(2-(2,3-difluorophenyl)-1H-imidazol-1-yl)-4-ethyl-4,5-dihydro-[1,2,4]triazolo[4,3-f]pteridine] | – | – | < 1 µM | – | – | – | – | < 1 µM | – | 1 to 10 µM
CC[C@@H]1C(=O)N(C)c2cnc(-n3ccnc3-c3ccccc3F)nc2N1C1CCC1 [PCT Example 49, reference compound] | 0.42 µM | – | – | – | 0.0045 µM | 0.058 | – | – | 0.077 µM | –
CC[C@@H]1c2nncn2-c2cnc(-c3c[nH]nc3-c3nccs3)nc2N1C1CCC1 [Example 695, (R)-2-(4-(5-cyclobutyl-4-ethyl-4,5-dihydro-[1,2,4]triazolo[4,3-f]pteridin-7-yl)-1H-pyrazol-3-yl)thiazole] | – | – | < 1 µM | – | – | – | – | 1 to 10 µM | – | 1 to 10 µM
